In PMC3566758 (Beilstein Journal of Organic Chemistry, 2013):
In brackets after ≈: the same amount, converted by molar mass. Read-outs that look alike come from different tables or passages of the source.

Legend:
[1] = tested on: measles virus (MeV) recombinant; experiment: microbe, parasite or virus in culture; format: cell-based; details: for EC50: Measles morbillivirus
[2] = microbe, parasite or virus in culture; format: cell-based; details: Influenza A virus, WSN, read-out: EC50 WSN
measles virus (MeV) = experiment: measles virus cytopathic effect (CPE) reduction assay; format: cell-based; details: Measles morbillivirus, read-out: MeV (CPE) 50% inhibitory concentration
Procedure: A small set of compounds was synthesized based on variations of 1 by replacing the p-methoxyphenyl group with other substituted phenyl rings or heterocyclic rings. The compounds were initially assayed in two screening assays: (1) a measles virus cytopathic effect (CPE) reduction assay and (2) a solubility assay based on laser nephelometry. Unfortunately, compounds with the highest aqueous solubilities (>100 µg/mL) had the poorest antiviral activity (i.e., 18a and 18e, Table 1).

[3] = set-up: method as in earlier work; details: ref 15 (Pharmacokinetics Study of JMN3-003. Unpublished results); cited from earlier work
MeV = experiment: virus yield reduction assay; format: cell-based; details: Measles morbillivirus, read-out: MeV 50% inhibitory concentration, virus yield reduction assay
[4] = averages of four experiments, highest concentration assessed 75 μM
[5] = pH 7.4, aqueous buffer, kinetic from dmso stock
[6] = pH 3, aqueous buffer, kinetic from dmso stock
[7] = pH 5, aqueous buffer, kinetic from dmso stock

Structure (SMILES) | EC50 ([1]; read-out: EC50 MeV) [nM] | EC50 [2] [nM] | CC50 (in vitro) [nM] | IC50 (measles virus (MeV); [4]) [nM] | solubility (physchem; [5]) [µg/mL] | other results
COc1ccc(-n2c(S[C@H](C)C(=O)Nc3ccc(C)cc3Cl)nc3ccccc32)cc1 [(R)-1] | 880 | 160 | > 50000 |  |  | 
Cc1ccc(NC(=O)[C@H](C)Sc2nc3ccccc3n2-c2ccc(CCN3CCOCC3)cc2)c(Cl)c1 [(S)-14c] | 180 | 36 |  |  |  | 
Cc1ccc(NC(=O)C(C)Sc2nc3ccccc3n2CCN2CCOCC2)c(Cl)c1 (stereo not shown) [Compound 18d] |  |  |  | 4900 | 22 (≈ 47.9 µM) | 
Cc1ccc(NC(=O)C(C)Sc2nc3ccccc3n2N2CCN(C)CC2)c(Cl)c1 (stereo not shown) [Compound 18c] |  |  |  | > 75000 | < 15 | 
COc1ccc(-n2c(S[C@@H](C)C(=O)Nc3ccc(C)cc3Cl)nc3ccccc32)cc1 [(S)-1] | 37 | 5 | > 50000 |  |  | 
Cc1ccc(NC(=O)C(C)Sc2nc3ccccc3n2-c2cccc(CCN3CCOCC3)c2)c(Cl)c1 (stereo not shown) [Compound 14b] | 13 | 0.3 | > 50000 | 200 | 15 (≈ 28 µM) | solubility (physchem; [6]): 158 µg/mL (≈ 295 µM); solubility (physchem; [7]): 33 µg/mL (≈ 61.7 µM)
Cc1ccc(NC(=O)[C@@H](C)Sc2nc3ccccc3n2-c2ccccc2CN2CCN(C)CC2)c(Cl)c1 [(R)-14a] | 470 | 120 |  |  |  | 
COc1ccc(-n2c(SC(C)C(=O)Nc3ccc(C)cc3Cl)nc3ccccc32)cc1 (stereo not shown) [Compound 1] | 31 | 13 | > 50000 | 3100 | < 15 | oral bioavailability [3]: low; solubility (physchem): < 15 µg/mL; solubility (physchem; [6]): < 15 µg/mL; solubility (physchem; [7]): < 15 µg/mL
Cc1ccc(NC(=O)[C@@H](C)Sc2nc3ccccc3n2-c2cccc(CCN3CCOCC3)c2)c(Cl)c1 [(R)-14b] | 210 | 110 | > 50000 |  |  | 
Cc1ccc(NC(=O)[C@@H](C)Sc2nc3ccccc3n2-c2ccc(CCN3CCOCC3)cc2)c(Cl)c1 [(R)-14c] | 530 | 120 |  |  |  | 
Cc1ccc(NC(=O)[C@H](C)Sc2nc3ccccc3n2-c2ccccc2CN2CCN(C)CC2)c(Cl)c1 [(S)-14a] | 68 | 4 | 25000 |  |  | 
Cc1ccc(NC(=O)C(C)Sc2nc3ccccc3n2C2CCCN(C)C2)c(Cl)c1 (stereo not shown) [Compound 18b] |  |  |  |  | 19 (≈ 42.9 µM) | IC50 (measles virus (MeV)): > 290 nM
Cc1ccc(NC(=O)C(C)Sc2nc3ccccc3n2-c2ccccc2CN2CCN(C)CC2)c(Cl)c1 (stereo not shown) [Compound 14a] | 41 | 8 |  | 179 | 20 (≈ 37.4 µM) | solubility (physchem; [6]): > 300 µg/mL; solubility (physchem; [7]): 92 µg/mL (≈ 172 µM)
Cc1ccc(NC(=O)C(C)Sc2nc3ccccc3n2-c2ccc(CCN3CCOCC3)cc2)c(Cl)c1 (stereo not shown) [Compound 14c] | 110 | 43 |  | 600 | 25 (≈ 46.7 µM) | ΔEC50, (S)-enantiomer versus (R)-enantiomer ([1]; MeV and WSN EC50 comparisons): < 3 fold; solubility (physchem; [6]): 212 µg/mL (≈ 396 µM); solubility (physchem; [7]): 51 µg/mL (≈ 95.3 µM)
Cc1ccc(NC(=O)C(C)Sc2nc3ccccc3n2-c2cccc(CN3CCOCC3)c2)c(Cl)c1 (stereo not shown) [Compound 18f] |  |  |  | 270 | < 15 | 
Cc1ccc(NC(=O)C(C)Sc2nc3ccccc3n2CCN2CCNCC2)c(Cl)c1 (stereo not shown) [Compound 18e] |  |  |  | > 75000 | 120 (≈ 262 µM) | solubility (physchem; pH 7.4): > 100 µg/mL
Cc1ccc(NC(=O)[C@H](C)Sc2nc3ccccc3n2-c2cccc(CCN3CCOCC3)c2)c(Cl)c1 [(S)-14b] | 11 | 1 | > 50000 |  |  | EC50 ([1]; WSN, read-out: EC50 values against the two viruses): 1 to 11 nM
Cc1ccc(NC(=O)C(C)Sc2nc3ccccc3n2-c2cccc(CCn3ncnn3)c2)c(Cl)c1 (stereo not shown) [Compound 18g] |  |  |  |  | < 15 | IC50 (MeV): 50 nM
